Here are results for 58 molecules from patent publication US12187722B2, “Small molecule inhibitors of TEAD transcription factors” (The General Hospital Corporation, priority 2019, dated 2025).

Several values for one entry are separate records, joined by “and”; a condition that tells them apart may be missing. Identical values can stand only once.

Chain of TEAD2 (Q15562 whole entry): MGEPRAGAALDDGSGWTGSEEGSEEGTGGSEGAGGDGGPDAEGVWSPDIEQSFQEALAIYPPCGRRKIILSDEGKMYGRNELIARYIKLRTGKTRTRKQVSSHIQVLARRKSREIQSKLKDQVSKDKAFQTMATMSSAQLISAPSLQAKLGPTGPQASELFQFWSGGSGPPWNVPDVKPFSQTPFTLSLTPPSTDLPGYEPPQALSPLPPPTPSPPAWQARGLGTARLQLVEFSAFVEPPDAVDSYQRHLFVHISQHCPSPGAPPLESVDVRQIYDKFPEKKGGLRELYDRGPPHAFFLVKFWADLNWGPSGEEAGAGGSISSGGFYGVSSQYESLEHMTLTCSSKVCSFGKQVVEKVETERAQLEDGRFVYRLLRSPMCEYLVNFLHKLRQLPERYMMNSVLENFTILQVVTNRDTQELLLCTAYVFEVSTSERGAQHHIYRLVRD

The first experiment has as its target TEAD2 (Homo sapiens (Human), UniProt Q15562). Briefly: In vitro palmitoylation (TEAD2 autopalmitoylation, streptavidin blot). The experiment is classed as biochemical. Conditions: compound at 10 μM; Table 2. The essentials:
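Autopalmitoylation read by streptavidin-HRP Western blot after CuSO4/TBTA/TCEP click with 100 μM biotin-azide, 1 h RT, with His-HRP probed separately. Before that, TEAD2 protein (GST or His6, 500 ng) given compound for 15 min then 1 μM alkyne palmitoyl-CoA for 30 min; percent inhibition versus DMSO-treated samples.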
One may read the inhibition as how much of the control response was suppressed. Molecule `CC12CC3CC(C)(C1)CC(c1ccc(NC(=O)c4cccc(Nc5ccccc5C(=O)O)c4)cc1)(C3)C2` [Compound 222] gave an inhibition at 10 µM of 45%. On the same count and under the same terms, then `O=C(O)c1ccccc1NS(=O)(=O)c1ccc(Nc2ccc(C34CC5CC(CC(C5)C3)C4)cc2Cl)cc1` [Compound 223], with 100%; and `CC(C)c1ccccc1-c1ccc(NC(=O)c2cccc(Nc3ccccc3C(=O)O)c2)cc1` [Compound 224], with 81%; and `O=C(Nc1ccc(C23CC4CC(CC(C4)C2)C3)cc1)c1ccc(C(=O)Nc2ccccc2C(=O)O)cc1` [Compound 225], with 84%.

`CC(C)N(c1ccc(N(C)c2ccc(C34CC5CC(CC(C5)C3)C4)cc2)cc1)c1ccccc1C(=O)O` [Compound 226] had an inhibition at 10 µM of 17%. In turn, `CC12CC3CC(C)(C1)CC(c1ccc(NC(=O)c4ccc(Nc5cccc(C(=O)O)n5)cc4)cc1)(C3)C2` [Compound 227] registered an inhibition at 10 µM of 58%.

For the molecule `O=C(Nc1ccccc1C(=O)O)c1ccc(Nc2ccc(C34CC5CC(CC(C5)C3)C4)cc2Br)cc1` [Compound 228], the inhibition at 10 µM was 89%. With `O=C(Nc1ccccc1C(=O)O)c1ccc(Nc2ccc(C34CC5CC(CC(C5)C3)C4)cc2Cl)cc1` [Compound 229], the inhibition at 10 µM was determined as 91%. Same read-out and setting: in the case of `CN(c1cccc(C(=O)Nc2ccc(C34CC5CC(CC(C5)C3)C4)cc2)c1)c1ccccc1C(=O)O` [Compound 230] it was 0%; in that of `CN(c1ccc(S(=O)(=O)N(C)c2ccc(C34CC5CC(CC(C5)C3)C4)cc2)cc1)c1ncccc1C(=O)O` [Compound 231], 0%; in that of `CN(c1ccc(Nc2cccc(C(=O)NC34CC5CC(CC(C5)C3)C4)c2)cc1)c1ccccc1C(=O)O` [Compound 232], 33%. With `CN(c1ccc(N(C)c2ccccc2C(=O)O)cc1)c1cccc(C(=O)NC23CC4CC(CC(C4)C2)C3)c1` [Compound 233], the inhibition at 10 µM stood at 9%. `O=C(Nc1ccc(C23CC4CC(CC(C4)C2)C3)cc1)c1cccc(Nc2ncccc2C(=O)O)c1` [Compound 234] had an inhibition at 10 µM of 64%. With `O=C(O)c1cccc(Nc2cccc(C(=O)Nc3ccc(C45CC6CC(CC(C6)C4)C5)cc3)c2)c1` [Compound 235], 10 µM produced 84% inhibition. `CC(C)c1ccccc1-c1ccc(Oc2ccc(N(C)c3ccccc3C(=O)O)cc2)c(Cl)c1` [Compound 236] showed an inhibition at 10 µM of 62%. Still for that read-out and setting: in the case of `O=C(Nc1ccccc1C(=O)O)c1ccc(Oc2ccc(C34CC5CC(CC(C5)C3)C4)cc2)cc1` [Compound 237] it was 93%; in that of `COc1cccc(N(C)c2ccc(N(C)c3ccc(C45CC6CC(CC(C6)C4)C5)cc3)cc2)c1C(=O)O` [Compound 238], 100%. Turning to `O=C(Nc1ccccc1C(=O)O)c1cccc(Nc2ccc(C34CC5CC(CC(C5)C3)C4)cc2)c1` [Compound 239], the “% of inhibition of TEAD2 palmitoylation at 10 μM” value (“% of inhibition … at 10 μM” below) is recorded as 100% and the inhibition at 10 µM worked out at 98%. For the molecule `O=C(O)c1cccc(NC(=O)c2cccc(Nc3ccc(C45CC6CC(CC(C6)C4)C5)cc3)c2)c1` [Compound 240], the inhibition at 10 µM is 62%. On the same count and under the same terms, then `O=C(Nc1ccc(C23CC4CC(CC(C4)C2)C3)cc1Cl)c1cccc(Nc2ncccc2C(=O)O)c1` [Compound 241], with 100%. `O=C(Nc1ccc(C23CC4CC(CC(C4)C2)C3)cc1Cl)c1cccc(Nc2ccccc2C(=O)O)c1` [Compound 242]: the “% of inhibition … at 10 μM” value is 35% and 58%. Turning to `CN(c1ccc(CC(=O)Nc2ccccc2C(=O)O)cc1)c1ccc(C23CC4CC(CC(C4)C2)C3)cc1` [Compound 243], at 10 µM the inhibition was 67%.

Turning to `c1ccc2c(c1)ccn2-c1ccc(Nc2ccc(C34CC5CC(CC(C5)C3)C4)cc2)cc1` [Compound 244], at 10 µM the inhibition was 8%. Same read-out and setting: then `O=C(O)/C=C/c1ccccc1Nc1ccc(Nc2ccc(C34CC5CC(CC(C5)C3)C4)cc2)cc1` [Compound 245], with 87%. On the same count and under the same terms, in the case of `O=C(O)c1ccccc1Nc1cccc(S(=O)(=O)Nc2ccc(C34CC5CC(CC(C5)C3)C4)cc2)c1` [Compound 246] it was 99%; in that of `O=C(Nc1ccc(C23CC4CC(CC(C4)C2)C3)cc1)c1ccc(Cl)c(Nc2ncccc2C(=O)O)c1` [Compound 247], 95%. In turn, `COc1cccc(Nc2cccc(C(=O)Nc3ccc(C45CC6CC(CC(C6)C4)C5)cc3)c2)c1C(=O)O` [Compound 248] displayed an inhibition at 10 µM of 32%. Consider `COc1cc(Nc2ccc(Nc3ccc(C45CC6CC(CC(C6)C4)C5)cc3)cc2)c(C(=O)O)c(OC)c1` [Compound 249], for which the inhibition at 10 µM was found to be 1%. Still for that read-out and setting: then `COc1ccc(C(=O)O)c(Nc2ccc(Nc3ccc(C45CC6CC(CC(C6)C4)C5)cc3)cc2)c1` [Compound 251], with 27%; and `CCCCN(c1ccccc1)c1ccc(Nc2ccc(Nc3ncccc3C(=O)O)cc2)cc1` [Compound 255], with 50%. Consider `CCCCN(CCCC)C(=O)c1ccc(Nc2ccc(Nc3ncccc3C(=O)O)cc2)cc1` [Compound 256], for which the inhibition at 10 µM was found to be 46%. As for `O=C(NC12CC3CC(CC(C3)C1)C2)c1ccc(Nc2ccc(Nc3ncccc3C(=O)O)cc2)cc1` [Compound 257], at 10 µM the inhibition was 55%. `CCCCN(c1ccccc1)c1ccc(Nc2ccc(Nc3ccccc3C(=O)O)cc2)c(Cl)c1` [Compound 258]: at 10 µM the inhibition was 0%.

For the molecule `CCCCN(c1ccccc1)c1ccc(Nc2ccc(Nc3ncccc3C(=O)O)cc2)c(Cl)c1` [Compound 259], the inhibition at 10 µM was 83%. On the same count and under the same terms, in the case of `O=C(O)c1ccccc1Nc1ccc(S(=O)(=O)Nc2ccc(C34CC5CC(CC(C5)C3)C4)cc2Cl)cc1` [Compound 260] it was 71%; in that of `O=C(O)c1cccnc1Nc1ccc(S(=O)(=O)Nc2ccc(C34CC5CC(CC(C5)C3)C4)cc2Cl)cc1` [Compound 261], 98%.

Turning to `CC12CC3CC(C)(C1)CC(c1ccc(NC(=O)c4cccc(Nc5ncccc5C(=O)O)c4)c(Cl)c1)(C3)C2` [Compound 262], at 10 µM the inhibition was 85%.

Turning to `CC12CC3CC(C)(C1)CC(c1ccc(NS(=O)(=O)c4ccc(Nc5ccccc5C(=O)O)cc4)c(Cl)c1)(C3)C2` [Compound 264], the inhibition at 10 µM was found to be 0%. On the same count and under the same terms, in the case of `CC12CC3CC(C)(C1)CC(c1ccc(NS(=O)(=O)c4ccc(Nc5ncccc5C(=O)O)cc4)c(Cl)c1)(C3)C2` [Compound 265] it was 78%; in that of `CCCCN(c1ccccc1)c1ccc(NC(=O)c2cccc(Nc3ncccc3C(=O)O)c2)cc1` [Compound 266], 81%; in that of `O=C(NCc1ccc(C23CC4CC(CC(C4)C2)C3)cc1)c1ccc(Nc2ccccc2C(=O)O)cc1` [Compound 267], 36%. Still for that read-out and setting: then `O=C(NCc1ccc(C23CC4CC(CC(C4)C2)C3)cc1)c1cccc(Nc2ccccc2C(=O)O)c1` [Compound 268], with 10%. Same read-out and setting: in the case of `COCCOc1ccc(Nc2ccc(N(C)c3ccc(C45CC6CC(CC(C6)C4)C5)cc3)cc2)c(C(=O)O)c1` [Compound 269] it was 100%; in that of `NC(=O)c1ccccc1Nc1ccc(Nc2ccc(C34CC5CC(CC(C5)C3)C4)cc2Cl)cc1` [compound 272], 77%. On to `CNC(=O)c1ccccc1Nc1ccc(Nc2ccc(C34CC5CC(CC(C5)C3)C4)cc2Cl)cc1` [compound 276], for which at 10 µM the inhibition was 52%. The same measure, in the same setting: then `O=C(O)c1ccccc1C(=O)Nc1ccc(Nc2ccc(C34CC5CC(CC(C5)C3)C4)cc2Cl)cc1` [compound 279], with 98%; and `NC1(C(=O)Nc2ccc(Nc3ccc(C45CC6CC(CC(C6)C4)C5)cc3Cl)cc2)CC1` [compound 280], with 17%. `O=C(O)c1ccccc1Nc1cnc(Nc2ccc(C34CC5CC(CC(C5)C3)C4)cc2Cl)cn1` [compound 283] displayed an inhibition at 10 µM of 99%.

Molecule `O=C(O)c1ccccc1Nc1ncc(Nc2ccc(C34CC5CC(CC(C5)C3)C4)cc2Cl)cn1` [compound 284] had an inhibition at 10 µM of 14%. Same read-out and setting: then `O=C(O)C1=C(C(=O)Nc2ccc(C34CC5CC(CC(C5)C3)C4)cc2)CCC1` [compound 289], with 88%. In turn, `O=C(O)C1=C(C(=O)Nc2ccc(Nc3ccc(C45CC6CC(CC(C6)C4)C5)cc3Cl)cc2)CCC1` [compound 290] returned an inhibition at 10 µM of 69%. In turn, `O=C(O)c1ccccc1C(=O)Nc1cccc(Nc2ccc(C34CC5CC(CC(C5)C3)C4)cc2)c1` [compound 292] displayed an inhibition at 10 µM of 97%.

With `COc1ccc(Nc2ccc(N(C)c3ccc(C(F)(F)F)cc3)cc2)c(C(N)=O)c1` [compound 429], the inhibition at 10 µM was 47%. Still for that read-out and setting: in the case of `CNC(=O)c1cc(OC)ccc1Nc1ccc(N(C)c2ccc(C(F)(F)F)cc2)cc1` [compound 430] it was 63%; in that of `COc1ccc(Nc2ccc(N(C)c3ccc(C(F)(F)F)cc3)cc2)c(C(=O)N(C)C)c1` [compound 431], 37%; in that of `O=C(O)c1ccccc1Nc1cnc(Oc2ccc(C34CC5CC(CC(C5)C3)C4)cc2Cl)cn1` [compound 440], 75%. The same measure, in the same setting: then `O=C(O)c1ccccc1Nc1cnc(Oc2ccc(C3CCCCC3)cc2Cl)cn1` [compound 441], with 79%.

Staying with this experiment, now noted: compound at 10 μM; Table 2; listed as 293.
Turning to `O=C(O)c1ccccc1C(=O)Nc1ccc(Nc2ccc(C34CC5CC(CC(C5)C3)C4)cc2Cl)cc1` [compound 286, 2-((4-(4-((3r,5r,7r)-adamantan-1-yl)-2-chlorophenyl)amino)phenyl)carbamoyl) benzoic acid], the “% of inhibition … at 10 μM” value was found to be 86%.
